Results taken from patent US20240336572A1, “SUBSTITUTED INDAZOLE PROPIONIC ACID DERIVATIVE COMPOUNDS AND USES THEREOF” (Pfizer Inc., priority 2023, published 2024).

What was measured:
AMPK 111 = molecular target: T1, AMPK 111 (Homo sapiens, UniProt Q13131+Q9Y478); assay: Biochemical profiling of AMPK activators by AMPK111 (HTRF/TR-FRET assay, SAMS peptide, PP2A dephosphorylation protection); details: for EC50: phosphorylated AMPK 111 (α1β1δ1 as printed), 11 point dilution, duplicate, 4-parameter fit; for Emax: phosphorylated AMPK 111, maximal activation
T1 construct: open reading frames encoding the full-length α1, β1 and δ1 subunits of human AMPK; made in house; host or cells: E. coli BL21-CodonPlus (DE3)-RIPL, pET-14b
T1 sequence (Q13131 whole entry): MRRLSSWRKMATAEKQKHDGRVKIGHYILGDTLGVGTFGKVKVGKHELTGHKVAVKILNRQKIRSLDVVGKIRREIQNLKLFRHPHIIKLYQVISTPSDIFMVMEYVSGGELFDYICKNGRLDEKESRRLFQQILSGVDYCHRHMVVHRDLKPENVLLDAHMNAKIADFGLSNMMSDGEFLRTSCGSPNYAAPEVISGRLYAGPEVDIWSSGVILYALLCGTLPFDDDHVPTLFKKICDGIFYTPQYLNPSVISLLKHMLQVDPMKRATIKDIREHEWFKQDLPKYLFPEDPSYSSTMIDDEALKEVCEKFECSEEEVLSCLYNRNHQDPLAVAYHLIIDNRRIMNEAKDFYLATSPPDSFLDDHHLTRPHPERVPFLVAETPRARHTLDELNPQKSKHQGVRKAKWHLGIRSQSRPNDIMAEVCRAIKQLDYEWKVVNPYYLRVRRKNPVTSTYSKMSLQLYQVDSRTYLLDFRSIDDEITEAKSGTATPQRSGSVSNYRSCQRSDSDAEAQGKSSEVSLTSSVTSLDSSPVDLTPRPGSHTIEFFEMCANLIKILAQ
T1 sequence (Q9Y478 whole entry): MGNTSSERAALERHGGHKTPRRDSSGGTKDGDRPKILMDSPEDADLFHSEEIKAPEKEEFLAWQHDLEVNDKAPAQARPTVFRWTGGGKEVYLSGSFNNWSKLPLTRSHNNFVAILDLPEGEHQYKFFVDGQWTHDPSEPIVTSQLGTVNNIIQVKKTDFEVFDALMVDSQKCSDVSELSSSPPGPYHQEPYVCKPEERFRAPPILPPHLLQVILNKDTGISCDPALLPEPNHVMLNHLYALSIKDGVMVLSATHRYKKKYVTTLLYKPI
T1 sequence (P54619 whole entry partner): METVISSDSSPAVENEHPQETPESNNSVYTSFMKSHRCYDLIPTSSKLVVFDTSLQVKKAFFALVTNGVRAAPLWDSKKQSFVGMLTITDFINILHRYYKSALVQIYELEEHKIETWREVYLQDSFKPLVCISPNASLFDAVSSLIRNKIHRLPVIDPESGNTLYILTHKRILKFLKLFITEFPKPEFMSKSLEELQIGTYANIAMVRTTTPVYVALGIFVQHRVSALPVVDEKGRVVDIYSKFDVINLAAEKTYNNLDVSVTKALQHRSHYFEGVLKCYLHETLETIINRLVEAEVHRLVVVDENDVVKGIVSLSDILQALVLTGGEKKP

AMPK 221 = molecular target: T2, AMPK 221 (Homo sapiens, UniProt O43741+P54646); assay: Biochemical profiling of AMPK activators by AMPK221 (HTRF/TR-FRET assay, SAMS peptide, PP2A dephosphorylation protection); details: for EC50: phosphorylated AMPK 221 (α2β2δ1), 11 point dilution, duplicate, 4-parameter fit; for Emax: phosphorylated AMPK 221, maximal activation
T2 construct: open reading frames encoding the full-length α2, β2 and δ1 subunits of human AMPK; made in house; host or cells: E. coli BL21-CodonPlus (DE3)-RIPL, pET-14b
T2 sequence (P54646 whole entry): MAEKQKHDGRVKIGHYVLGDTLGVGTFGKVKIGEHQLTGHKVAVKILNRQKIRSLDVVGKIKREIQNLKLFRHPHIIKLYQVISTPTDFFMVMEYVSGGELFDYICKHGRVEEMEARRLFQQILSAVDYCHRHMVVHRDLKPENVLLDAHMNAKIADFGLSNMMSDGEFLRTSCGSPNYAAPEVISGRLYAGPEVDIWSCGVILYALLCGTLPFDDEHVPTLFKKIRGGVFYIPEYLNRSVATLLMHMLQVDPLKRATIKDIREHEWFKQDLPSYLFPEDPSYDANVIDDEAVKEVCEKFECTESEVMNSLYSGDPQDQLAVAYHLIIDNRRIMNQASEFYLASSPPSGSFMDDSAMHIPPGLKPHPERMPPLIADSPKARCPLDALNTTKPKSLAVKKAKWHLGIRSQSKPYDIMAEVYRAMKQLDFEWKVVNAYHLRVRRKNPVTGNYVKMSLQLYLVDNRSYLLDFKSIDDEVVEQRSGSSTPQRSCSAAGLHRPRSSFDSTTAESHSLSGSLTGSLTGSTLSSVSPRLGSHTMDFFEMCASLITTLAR
T2 sequence (O43741 whole entry): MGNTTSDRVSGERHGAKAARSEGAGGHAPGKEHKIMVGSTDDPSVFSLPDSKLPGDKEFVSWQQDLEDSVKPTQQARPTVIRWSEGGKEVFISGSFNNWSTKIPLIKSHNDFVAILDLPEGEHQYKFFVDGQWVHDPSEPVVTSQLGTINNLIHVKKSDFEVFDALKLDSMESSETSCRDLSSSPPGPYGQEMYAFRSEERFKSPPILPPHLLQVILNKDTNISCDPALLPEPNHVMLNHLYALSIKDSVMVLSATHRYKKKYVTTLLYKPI
T2 sequence (P54619 whole entry partner): as the sequence (P54619 whole entry partner) above

[1] = Metabolite profile in liver microsomes, hepatocytes, recombinant human P450 and UGT enzymes, and animal plasma; type: in vitro ADME; details: liver microsomes and hepatocytes (mouse, rat, rabbit, dog, monkey, human)
Procedure: The metabolite profile of Example 1 is evaluated in liver microsomes and hepatocytes (mouse, rat, rabbit, dog, monkey, and human), recombinant human cytochrome P450 enzymes, recombinant human UGT enzymes, and plasma from animals (mouse, rat, and dog).

EC50 (AMPK 111) [nM]	Emax (AMPK 111) [%]	EC50 (AMPK 221) [nM]	Emax (AMPK 221) [%]	metabolite profile [1]	SMILES
47	75	88	57	oxidation and glucuronidation	O=C(O)CCc1n[nH]c2cc(Cl)c(-c3ccc(-c4ccccc4O)cc3)cc12 [Example 1, 3-(6-Chloro-5-(2′-hydroxy-[1,1′-biphenyl]-4-yl)-1H-indazol-3-yl)propanoic acid]
692	55	645	34	–	O=C(O)CCc1n[nH]c2cc(Cl)c(-c3ccc(-c4cccc(CO)c4)cc3)cc12 [Example 61, 3-(6-chloro-5-(3′-(hydroxymethyl)-[1,1′-biphenyl]-4-yl)-1H-indazol-3-yl)propanoic acid]
25	72	14	57	–	COc1ccc(C)c(-c2ccc(-c3cc4c(CCC(=O)O)n[nH]c4cc3Cl)cc2)c1O [Example 62, 3-(6-chloro-5-(2′-hydroxy-3′-methoxy-6′-methyl-[1,1′-biphenyl]-4-yl)-1H-indazol-3-yl)propanoic acid]
281	56	565	64	–	CSc1ccc(-c2ccc(-c3cc4c(CCC(=O)O)n[nH]c4cc3Cl)cc2)c(O)c1 [Example 63, 3-(6-chloro-5-(2′-hydroxy-4′-(methylthio)-[1,1′-biphenyl]-4-yl)-1H-indazol-3-yl)propanoic acid]
203	76	617	48	–	O=C(O)CCc1n[nH]c2cc(Cl)c(-c3ccc(-c4ccc(Cl)cc4O)cc3)cc12 [Example 64, 3-(6-chloro-5-(4′-chloro-2′-hydroxy-[1,1′-biphenyl]-4-yl)-1H-indazol-3-yl)propanoic acid]
263	79	795	58	–	O=C(O)CCc1n[nH]c2cc(Cl)c(-c3ccc(-c4cnsc4)cc3)cc12 [Example 65, 3-(6-chloro-5-(4-(isothiazol-4-yl)phenyl)-1H-indazol-3-yl)propanoic acid]
365	74	1090	63	–	O=C(O)CCc1n[nH]c2cc(Cl)c(-c3ccc(-c4csc(CO)n4)cc3)cc12 [Example 66, 3-(6-chloro-5-(4-(2-(hydroxymethyl)thiazol-4-yl)phenyl)-1H-indazol-3-yl)propanoic acid]
69	85	953	63	–	O=C(O)CCc1n[nH]c2cc(Cl)c(-c3ccc(-c4c(Cl)ccc(F)c4O)cc3)cc12 [Example 67, 3-(6-chloro-5-(6′-chloro-3′-fluoro-2′-hydroxy-[1,1′-biphenyl]-4-yl)-1H-indazol-3-yl)propanoic acid]
29	71	19	69	–	O=C(O)CCc1n[nH]c2cc(Cl)c(-c3ccc(-c4ccc5c(c4O)OCC5)cc3)cc12 [Example 68, 3-(6-chloro-5-(4-(7-hydroxy-2,3-dihydrobenzofuran-6-yl)phenyl)-1H-indazol-3-yl)propanoic acid]
480	73	1150	58	–	O=C(O)CCc1n[nH]c2cc(Cl)c(-c3ccc(-c4ccc(OC(F)F)cc4O)cc3)cc12 [Example 69, 3-(6-chloro-5-(4′-(difluoromethoxy)-2′-hydroxy-[1,1′-biphenyl]-4-yl)-1H-indazol-3-yl)propanoic acid]
285	74	1090	49	–	O=C(O)CCc1n[nH]c2cc(Cl)c(-c3ccc(-c4cc(F)ccc4O)cc3)cc12 [Example 70, 3-(6-chloro-5-(5′-fluoro-2′-hydroxy-[1,1′-biphenyl]-4-yl)-1H-indazol-3-yl)propanoic acid]
279	73	994	60	–	O=C(O)CCc1n[nH]c2cc(Cl)c(-c3ccc(-c4ccc(F)c(F)c4O)cc3)cc12 [Example 71, 3-(6-chloro-5-(3′,4′-difluoro-2′-hydroxy-[1,1′-biphenyl]-4-yl)-1H-indazol-3-yl)propanoic acid]
99	103	1830	114	–	NC(=O)COc1ccc(-c2ccc(-c3cc4c(CCC(=O)O)n[nH]c4cc3Cl)cc2)cc1 [Example 72, 3-(5-(4′-(2-amino-2-oxoethoxy)-[1,1′-biphenyl]-4-yl)-6-chloro-1H-indazol-3-yl)propanoic acid]
26	86	2110	30	–	O=C(O)CCc1n[nH]c2cc(Cl)c(-c3ccc(-c4ccccc4O)cc3)nc12 [Example 73, 3-(6-chloro-5-(2′-hydroxy-[1,1′-biphenyl]-4-yl)-1H-pyrazolo[4,3-b]pyridin-3-yl)propanoic acid]
92	80	66	69	–	COc1cccc(-c2ccc(-c3cc4c(CCCC(=O)O)n[nH]c4cc3Cl)cc2)c1O [Example 74, 4-(6-chloro-5-(2′-hydroxy-3′-methoxy-[1,1′-biphenyl]-4-yl)-1H-indazol-3-yl)butanoic acid]
74	75	229	63	–	Cc1cccc(O)c1-c1ccc(-c2cc3c(CCCC(=O)O)n[nH]c3cc2Cl)cc1 [Example 75, 4-(6-chloro-5-(2′-hydroxy-6′-methyl-[1,1′-biphenyl]-4-yl)-1H-indazol-3-yl)butanoic acid]
6	67	13	53	–	CNC(=O)c1ccc(-c2ccc(-c3cc4c(CCC(=O)O)n[nH]c4cc3Cl)cc2)cc1 [Example 76, 3-(6-chloro-5-(4′-(methylcarbamoyl)-[1,1′-biphenyl]-4-yl)-1H-indazol-3-yl)propanoic acid]
70	66	82	58	–	O=C(O)CCc1n[nH]c2cc(Cl)c(-c3ccc(-c4ccc(C(=O)NCCCO)cc4)cc3)cc12 [Example 77, 3-(6-chloro-5-(4′-((3-hydroxypropyl)carbamoyl)-[1,1′-biphenyl]-4-yl)-1H-indazol-3-yl)propanoic acid]
93	78	87	66	–	COc1ccc(C)c(-c2ccc(-c3cc4c(CCCC(=O)O)n[nH]c4cc3Cl)cc2)c1O [Example 78, 4-(6-chloro-5-(2′-hydroxy-3′-methoxy-6′-methyl-[1,1′-biphenyl]-4-yl)-1H-indazol-3-yl)butanoic acid]
39	67	29	27	–	O=C(CCc1n[nH]c2cc(Cl)c(-c3ccc(-c4ccccc4O)cc3)cc12)OC1OC(C(=O)O)C(O)C(O)C1O (centres unmarked) [Example 79, 6-((3-(6-chloro-5-(2′-hydroxy-[1,1′-biphenyl]-4-yl)-1H-indazol-3-yl)propanoyl)oxy)-3,4,5-trihydroxytetrahydro-2H-pyran-2-carboxylic acid]
> 21100	–	> 21100	–	–	O=C(O)CCc1n[nH]c2cc(Cl)c(-c3ccc(-c4ccccc4OC4OC(C(=O)O)C(O)C(O)C4O)cc3)cc12 (centres unmarked) [Example 80, 6-((4′-(3-(2-carboxyethyl)-6-chloro-1H-indazol-5-yl)-[1,1′-biphenyl]-2-yl)oxy)-3,4,5-trihydroxytetrahydro-2H-pyran-2-carboxylic acid]
